Experimental findings from US20050101542A1, “Combination therapy for controlling appetites” (Regents of the University of California, priority 2002, published 2005) are described below.

A short description of data set [1]: Circulating OEA levels after OEA administration (HPLC/MS). The data set is classed as in vivo. Particulars: rat, plasma, ip; 1 hr after 5 mg per kg i.p., rats; baseline 10.1±1.1. How it is done: HPLC/MS analyses. Plasma was prepared from blood obtained by cardiac puncture (Giuffrida, et al., Anal. Biochem., 280:87-93 (2000)) and CSF was collected from the cisterna magna using a 27G ½ needle (Precisionglide, USA). FAEs and NAPE were extracted from tissues with methanol/chloroform and fractionated by column chromatography (Giuffrida, et al., “Lipid Second Messengers” (ed. Laychock, S. G. & Rubin, R. P.) 113-133 (CRC Press LLC, Boca Raton, Fla., 1998)). FAEs were quantified by HPLC/MS, using an isotope dilution method (Giuffrida, et al., Anal. Biochem., 280:87-93 (2000)). Individual NAPE species were identified and quantified by HPLC/MS, using an external standard method (Calignano, et al., Nature, 408:96-101 (2000)).
OEA elicits hypophagia at physiologically relevant doses. […] Thus, the concentrations reached by OEA in blood during starvation can be sufficient to elicit notable behavioral responses.

A short description of data set [2]: Acute food intake in 24-h food-deprived rats, i.p. dosing. The format is in vivo, rat. How it is done:
Feeding experiments. Acute experiments. Food intake was measured in 24-h food-deprived rats (Navarro, et al., J. Neurochem., 67:1982-1991 (1996)), administering drugs 15 min before food presentation. Subchronic experiments. Ad libitum fed rats received vehicle injections for three days. On day four, the animals were divided in two equal groups and gave them daily injections of vehicle or OEA (5 mg per kg at 1900 h) for 7 consecutive days, while measuring body weight, food intake and water intake.
The effects of systemically administered OEA or an OEA-like compound or OEA-like modulator on food intake in rats can be assessed using a 24 h fast. […] To define the selectivity of this response, various OEA analogs were evaluated for their ability to produce hypophagia.

The nature of data set [3]: OEA for 2 weeks in obese Zucker rats: serum lipids, glucose, food intake, body weight. The format is in vivo, rat. The procedure: Subchronic experiments. Male wild-type and PPARα null mice were fed with a very high-fat diet (60 kcal % fat; D12492; Research Diets, NJ). […] The mice were divided into 4 groups (n=7-8 each), and treated them for 4 additional weeks with vehicle (saline/polyethylene glycol/Tween 80, 90/5/5; 1 ml-kg^−1) Or OEA (5 mg-kg^−1, once daily, i.p.). In a separate experiment, obese Zucker rats were treated for 2 weeks with vehicle or OEA (5 mg-kg^−1, once daily, i.p.), while maintaining them on a regular rodent chow (RMH 2500, Prolab). Food intake and body weight were measured daily. At the end of the experiments, the animals were fasted overnight, and tissues and blood samples collected for biochemical analyses.
Chronic experiment: In a separate experiment, we treated obese Zucker rats for 2 weeks with vehicle (saline/polyethylene glycol/Tween-80, 90/5/5; 1 ml kg^−1, once daily, i.p.) or OEA (5 mg kg^−1, once daily, i.p.), while maintaining them on a regular rodent chow (RMH 2500, Prolab). We measured food intake and body weight daily. At the end of the experiments, the animals were fasted overnight, and tissues and blood samples collected for biochemical analyses.
Lipids were extracted from mouse liver and epidydimal adipose tissue (Bligh and Dyer, 1959) and measured triglycerides with a commercial kit (Sigma). Serum lipids and glucose were measured with an automated Synchron LX® system (Beckman-Coulter).

Data set [4] can be described thus: Liver OEA content after OEA injection in wild-type and PPAR-α null mice (HPLC/MS). The format is in vivo, mouse. The conditions noted are these: 1 h after OEA 5 mg kg^−1 i.p.
The subject of another data set is Astrocyte. The experiment in a line: [14C]oleate oxidation to ketone bodies in astrocytes. The format is cell-based, rat. The conditions noted are these: 30 min incubation. The text has this: This example illustrates the effect of OEA on fat metabolism and methods for studying the same. Oleoylethanolamide (OEA) decreases body weight not only by suppressing appetite, but also by possibly enhancing body fat catabolism. The effects of OEA on fatty acid oxidation in major body-fat burning tissues (soleus muscle, liver, cultured cardiac myocytes and astrocytes) was examined. […] In addition, OEA induces a significant mobilization of triacylglycerol stores from primary white adipose tissue cells. Table 4 details the methods and effects of OEA on fatty acid oxidation in these cells. Structure-activity relationship experiments provide evidence that the effect of OEA on skeletal muscle fatty acid oxidation is specific (FIG. 8).

A short description of data set [5]: Food intake in capsaicin-treated (sensory deafferented) rats, Example 2. Particulars: OEA 10 mg per kg i.p. The format is in vivo, rat.
Procedure: FAE were dissolved in dimethylsulphoxide (DMSO) and administered in 70% DMSO in sterile saline (acute treatments) Or 5% Tween 80/5% propylenglycol in sterile saline (subchronic treatments) (1 ml per kg, i.p.). Capsaicin was administered in 10% Tween 80/10% ethanol/80% saline; SR141716A, SR144528, CCK-8 and CP-93129 in 5% Tween 80/5% propylenglycol/90% saline (1 ml per kg, i.p.).
The subject of another data set is c-fos mRNA. The experiment in a line: c-fos mRNA in situ hybridization in rat brain. The data set is classed as in vivo. Particulars: 10 mg per kg i.p., 60 min; PVN, supraoptic nucleus, NST. How it is done: In situ hybridization. Rats were accustomed to the handling and injection procedure for five days. On day six, vehicle or drug OEA (10 mg per kg, i.p.), or oleic acid (10 mg per kg) was administered, and the rats killed 60 min later by decapitation under anesthesia. In situ hybridization analyses were conducted using ^35S-labeled cRNA probes for c-fos (Guthrie et al., Proc. Natl. Acad. Sci. U.S.A., 90:3329-3333 (1993)) and choline acetyl transferase (ChAT) (Lauterborn et al., Brain Res. Mol. Brain Res., 17:59-69 (1993)). Average hybridization densities were determined from at least three tissue sections per rat. Statistical significance was evaluated using one-way analysis of variance (ANOVA) followed by the Tukey-Kramer post-hoc test for paired comparisons.
The compounds of the invention may use peripheral sensory inputs to suppress appetite. Peripheral sensory inputs related to appetite suppression recruit several CNS structures, which include the nucleus of the solitary tract (NST) in the brainstem and the arcuate and paraventricular (PVN) Nuclei in the hypothalamus (Schwartz et al., Nature, 404:661-671 (2000)). To identify the brain pathways engaged during OEA-induced hypophagia, mRNA levels for the activity regulated gene c-fos (Curran et al., Oncogene, 2:79-84 (1987)) were mapped by in situ hybridization after systemic administration of OEA, oleic acid or vehicle. […]

Data set [6] in a line: Plasma hormone levels by radioimmunoassay. The data set is classed as in vivo, rat. Particulars: 20 mg per kg i.p. The procedure:
Blood chemistry. Plasma β-hydroxybutyrate and glycerol were measured using commercial kits (Sigma, St. Louis, Mo.). Plasma prolactin, corticosterone and luteinizing hormone were quantified by radioimmunoassay (Navarro, et al., Neuroreport, 8:491-496 (1997)).

Where [7] appears, read: OEA 5 mg kg−1 i.p. once a day for 2 weeks.

Each structure is given as a SMILES string.

As for `CCCCCCCC/C=C\CCCCCCCC(=O)NCCO` [OEA, Z-2-hydroxyethyl octadec-9-enamide], the concentration at 1 hr in data set [1] was found to be 16.1 ± 2.6 nM. In addition, the “food intake (hypophagia)” value in data set [2] (24-h food-deprived rats, i.p.) was “dose- and time-dependent suppression of food intake”. For the same compound, in data set [2] (acute, 5 or 20 mg per kg), the water intake result is “did not alter”. In data set [2] (i.p., rats), the “half-maximally effective dose for hypophagia” value stood at 5 mg per kg. Further, in data set [3] (setting [7]), the Serum cholesterol amounted to 66.14 ± 7.06 mg/dL, the Serum glucose is 221.25 ± 23.80 mg/dL and the Serum triglycerides worked out at 394.17 ± 49.40 mg/dL. Moreover, in data set [3] (OEA 5 mg-kg^−1 once daily for 2 weeks i.p.), the “food intake and body-weight gain” value is listed as “significant inhibition”. Besides, the “Liver OEA content” value in data set [4] (PPAR-α-null mice) worked out at 251.2 ± 28.2 pmol/g. In data set [4] (wild-type mice), the “Liver OEA content” value was 150.5 ± 19.7 pmol/g. Further, the “Stimulatory effect of 10 μM OEA on [14C]oleate oxidation to ketone bodies” value in the data set on Astrocyte is 2 ± 6 (n = 3) %. Moreover, in data set [5], the “feeding response in capsaicin-treated rats” value was “failed to respond”. Also, the “c-fos mRNA levels in brain regions” value in the data set with c-fos mRNA was “highly localized increase”. In data set [6], the “activity of the hypothalamus-pituitary-adrenal (HPA) axis” value is “did not alter”.
